From patent US11111230B2 (ADLAI NORTYE BIOPHARMA CO., LTD., priority 2017, dated 2021)

Experiments:
human IDO1 protein = biological target: T1, human IDO1 protein (Homo sapiens, UniProt P14902); test: Activity in HEK293 cells highly expressing human IDO1 protein; assay type: cell-based; settings: HEK293-IDO cells, tryptophan 16 mg/L, 24 hours, absorption at 480 nm; read-out: IC50 (HEK293 cell)
T1 construct: expressed in transfected cells; host or cells: HEK293
Protocol: Example 2: Study on the Activity of the Present Invention in HEK293 Cells Highly Expressing Human IDO1 Protein
HEK293-IDO cells with high expression of human IDO1 protein were prepared by electrotransformation, and the cells were seeded in 96-well culture plates, and cultured at 37° C., 100% relative humidity, and 5% CO2 incubator for 24 hours. Dissolve in DMSO and dilute to the appropriate concentration, then use DMEM medium containing 10% fetal bovine serum to dilute the candidate 100-fold to the final concentration. Aspirate the old medium from the 96-well plate and add 200 μL of the medium contained in the previous step to each well. The content of tryptophan in the medium is 16 mg/L. The cells were placed in a 37° C., 100% relative humidity, and 5% CO2 incubator for 24 hours. 140 μL of the cell culture supernatant was mixed with 15 μL of trichloroacetic acid and placed at 52° C. for 30 min. Mix with an equal volume of Ehrlich's reagent, measure the light absorption at 480 nm, and calculate the IC50 values.

Hela cells = test: Activity in Hela cells (interferon-γ induced, kynurenine readout with Ehrlich's reagent); assay type: cell-based; settings: Homo sapiens, interferon-γ 50 ng/mL, tryptophan 16 mg/L, 48 hours, absorption at 480 nm
Protocol: Example 1: Study on the Activity of the Compound of the Present Invention in Hela Cells
Hela cells were seeded in 96-well culture plates and incubated at 37° C., 100% relative humidity, 5% CO2 incubator for 24 hours. The compound was dissolved in DMSO and diluted to an appropriate concentration, and then the compound was diluted 100-fold with DMEM medium containing interferon-γ and 10% fetal bovine serum to the final concentration of effect. Aspirate the old medium from the 96-well plate and add 200 μL of each medium containing compound and interferon-γ from the previous step. The content of tryptophan in the medium is 16 mg/L, and the concentration of interferon-γ is 50 ng/mL. The cells were placed in a 37° C., 100% relative humidity, and 5% CO2 incubator for 48 hours, then 140 μL of the cell culture supernatant was mixed with 15 μL of trichloroacetic acid, and placed at 52° C. for 30 min, then centrifuged at room temperature to take the centrifugal supernatant. Mix with an equal volume of Ehrlich's reagent, measure the light absorption at 480 nm, and calculate the IC50 values.

T1 sequence (P14902 whole entry): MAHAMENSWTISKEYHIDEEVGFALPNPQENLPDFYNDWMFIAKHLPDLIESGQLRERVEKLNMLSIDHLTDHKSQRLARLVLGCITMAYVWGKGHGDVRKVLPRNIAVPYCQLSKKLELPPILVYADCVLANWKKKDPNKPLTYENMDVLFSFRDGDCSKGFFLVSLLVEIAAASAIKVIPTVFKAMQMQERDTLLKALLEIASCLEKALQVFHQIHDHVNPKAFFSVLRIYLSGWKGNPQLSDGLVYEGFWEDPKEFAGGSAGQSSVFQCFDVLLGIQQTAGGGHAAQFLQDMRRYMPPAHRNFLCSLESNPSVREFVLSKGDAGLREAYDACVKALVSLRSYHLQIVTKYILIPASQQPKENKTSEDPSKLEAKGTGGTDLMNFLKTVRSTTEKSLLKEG

Compound | IC50 (human IDO1 protein) | IC50 (Hela cells)
O=C(Nc1ccc(Cl)s1)C1CC12CCC(c1ccnc3ccc(F)cc13)CC2 (stereo not drawn) [Compound 13, N-(5-chlorothiophen-2-yl)-6-(6-fluoroquinolin-4-yl)spiro[2.5]octane-1-carboxamide] | 10 to 100 nM | 10 to 100 nM
COCCOc1ccc(NC(=O)C2CC23CCC(c2ccnc4cc(C)c(F)cc24)CC3)cc1 (stereo not drawn) [Compound 94, 6-(6-fluoro-7-methylquinolin-4-yl)-N-(4-(2-methoxyethoxy)phenyl)spiro[2.5]octane-1-carboxamide] | 10 to 100 nM | 0.1 to 10 nM
Cc1cc2nccc(C3CCC4(CC3)CC4C(=O)Nc3ccc(Cl)nc3)c2cc1F (stereo not drawn) [Compound 95, N-(6-chloropyridin-3-yl)-6-(6-fluoro-7-methylquinolin-4-yl)spiro[2.5]octane-1-carboxamide] | 10 to 100 nM | 0.1 to 10 nM
Cc1cc2nccc(C3CCC4(CC3)CC4C(=O)Nc3cncc(Cl)c3)c2cc1F (stereo not drawn) [Compound 96] | > 100 nM | 10 to 100 nM
Cc1cc2nccc(C3CCC4(CC3)CC4C(=O)Nc3ccnc(Cl)c3)c2cc1F (stereo not drawn) [Compound 97] | > 100 nM | > 100 nM
O=C(Nc1ccc(Cl)cc1)C1CC12CCC(c1ccnc3cc(F)c(F)cc13)CC2 (stereo not drawn) [Compound 100, N-(4-chlorophenyl)-6-(6,7-difluoroquinolin-4-yl)spiro[2.5]octane-1-carboxamide] | 10 to 100 nM | 0.1 to 10 nM
COc1cc2nccc(C3CCC4(CC3)CC4C(=O)Nc3ccc(Cl)cc3)c2cc1OC (stereo not drawn) [Compound 101] | 10 to 100 nM | 0.1 to 10 nM
N#Cc1cc2nccc(C3CCC4(CC3)CC4C(=O)Nc3ccc(Cl)cc3)c2cc1F (stereo not drawn) [Compound 102, N-(4-chlorophenyl)-6-(7-cyano-6-fluoroquinolin-4-yl)spiro[2.5]octane-1-carboxamide] | 10 to 100 nM | 0.1 to 10 nM
O=C(Nc1ccc(Cl)cc1)C1CC12CCC(c1ccnc3cc4c(cc13)OCCO4)CC2 (stereo not drawn) [Compound 103, N-(4-chlorophenyl)-6-(2,3-dihydro-[1,4]dioxino[2,3-g]quinolin-9-yl)spiro[2.5]octane-1-carborboxamide] | > 100 nM | > 100 nM
O=C(Nc1ccc(Cl)cc1)C1CC12CCC(O)(c1ccnc3ccc(F)cc13)CC2 (stereo not drawn) [Compound 104, N-(4-chlorophenyl)-6-(6-fluoroquinolin-4-yl)-6-hydroxyspiro[2.5]octane-1-carboxamide] | > 100 nM | > 100 nM
COc1cc2nccc(C3CCC4(CC3)CC4C(=O)Nc3ccc(Cl)cc3)c2cc1F (stereo not drawn) [Compound 105, N-(4-chlorophenyl)-6-(6-fluoro-7-methoxyquinolin-4-yl)spiro[2.5]octane-1-carboxamide] | 0.1 to 10 nM | 10 to 100 nM
CC1(C(=O)Nc2ccc(Cl)cc2)CC12CCC(c1ccnc3ccc(F)cc13)CC2 (stereo not drawn) [Compound 106, N-(4-chlorophenyl)-6-(6-fluoroquinolin-4-yl)-1-methylspiro[2.5]octane-1-carboxamide] | > 100 nM | > 100 nM
N#CC1(C(=O)Nc2ccc(Cl)cc2)CC12CCC(c1ccnc3ccc(F)cc13)CC2 (stereo not drawn) [Compound 107, N-(4-chlorophenyl)-1-cyano-6-(6-fluoroquinolin-4-yl)spiro[2.5]octane-1-carboxamide] | > 100 nM | > 100 nM
O=C(Nc1ccc(Cl)cc1)C1CC12CCC(c1ccnc3cc4c(cc13)OCO4)CC2 (stereo not drawn) [Compound 110, 6-([1,3]dioxolo[4,5-g]quinolin-8-yl)-N-(4-chlorophenyl)spiro[2.5]octane-1-carboxamide] | > 100 nM | 10 to 100 nM
COC(=O)COc1ccc(NC(=O)C2CC23CCC(c2ccnc4cc(C)c(F)cc24)CC3)cc1 (stereo not drawn) [Compound 111, Methyl 2-(4-(6-(6-fluoro-7-methylquinolin-4-yl)spiro[2.5]octane-1-carboxamido)phenoxy)acetate] | > 100 nM | > 100 nM
Cc1cc2nccc(C3CCC4(CC3)CC4C(=O)Nc3ccc(OCCO)cc3)c2cc1F (stereo not drawn) [Compound 112, 6-(6-fluoro-7-methylquinolin-4-yl)-N-(4-(2-hydroxyethoxy)phenyl)spiro[2.5]octane-1-carboxamide] | > 100 nM | 10 to 100 nM
COCCOc1ccc(NC(=O)C2CC23CCC(c2ccnc4cc(OC)c(OC)cc24)CC3)cc1 (stereo not drawn) [Compound 113, 6-(6,7-dimethoxyquinolin-4-yl)-N-(4-(2-methoxyethoxy)phenyl)spiro[2.5]octane-1-carboxamide] | 10 to 100 nM | 0.1 to 10 nM
O=C(Nc1ccc(Cl)cc1)C1CC12CCC(c1ccnc3cc(CO)c(F)cc13)CC2 (stereo not drawn) [Compound 114, N-(4-chlorophenyl)-6-(6-fluoro-7-(hydroxymethyl)quinolin-4-yl)spiro[2.5]octane-1-carboxamide] | 10 to 100 nM | 0.1 to 10 nM
